The text below walks through data of patent US7879838B2, “Heteroaryl substituted pyrazinyl-piperazine-piperidines with CXCR3 antagonist activity” (Schering Corporation, priority 2005, dated 2011).

By IC50 is commonly meant the concentration that gives 50% inhibition. Lower therefore signals greater potency in that assay.

In this experiment the target is T1, Human CXCR3 (N-delta 4) (Homo sapiens, UniProt P49682).
T1 construct: CD8 leader (N); Flag tag; expressed in transfected cells; membranes prepared
T1 sequence (P49682 5-368 limits assumed): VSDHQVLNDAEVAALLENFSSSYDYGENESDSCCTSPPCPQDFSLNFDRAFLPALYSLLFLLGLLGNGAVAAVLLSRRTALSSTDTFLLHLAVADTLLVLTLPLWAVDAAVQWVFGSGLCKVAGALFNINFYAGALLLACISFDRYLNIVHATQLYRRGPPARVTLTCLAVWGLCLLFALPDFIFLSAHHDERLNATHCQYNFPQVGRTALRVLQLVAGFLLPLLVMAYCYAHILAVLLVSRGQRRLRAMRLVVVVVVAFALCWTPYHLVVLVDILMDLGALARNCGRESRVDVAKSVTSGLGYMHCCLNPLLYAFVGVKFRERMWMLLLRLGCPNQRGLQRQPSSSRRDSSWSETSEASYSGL
Nature of the experiment: Human CXCR3 (N-delta 4) scintillation proximity assay (SPA), [125I] IP-10 binding to Ba/F3-hCXCR3 membranes. To be noted: IC50 rating; 25 pM [125I] IP-10, membranes of Ba/F3 cells expressing human CXCR3 (N-delta 4). From the text:
The inventive compounds can readily be evaluated to determine activity at The CXCR3 receptors by known methods, such as, for example, Development of Human CXCR3 (N-delta 4) Binding Assay.
Cloning and Expression of Human CXCR3 (N-delta 4):
The DNA encoding human CXCR3 was cloned by PCR using human genomic DNA (Promega, Madison, Wis.) as a template. The PCR primers were designed based on the published sequence of human orphan receptor GPR9 (1) with incorporated restriction sites, a Kozak consensus sequence, CD8 leader and Flag tag. The PCR product was subcloned into the mammalian expression vector pME18Sneo, a derivative of the SR-alpha expression vector (designated as pME18Sneo-hCXCR3 (N-delta 4).
IL-3-dependent mouse pro-B cells Ba/F3 were transfected by electroporation in 0.4 ml Dulbecco's PBS containing 4×10^6 cells with 20 μg of pME18Sneo-hCXCR3 (N-delta 4) plasmid DNA. Cells were pulsed at 400 Volts, 100 OHMs, 960 μFd. The transfected cells were under selection with 1 mg/ml G418 (Life Technologies, Gaithersburg, Md.). G418-resistant Ba/F3 clones were screened for CXCR3 expression by specific binding of [^125I] IP-10 (NEN Life Science Products, Boston, Mass.).
Preparation of Ba/F3-hCXCR3 (N-delta 4) Membranes
Ba/F3 cells expressing human CXCR3 (N-delta 4) were pelleted and resuspended in the lysis buffer containing 10 mM HEPES, pH 7.5 and Complete® protease inhibitors (1 tablet per 100 ml) (Boehringer Mannheim, Indianapolis, Ind.) at a cell density of 20×10^6 cells per ml. After 5 minutes incubation on ice, cells were transferred to 4639 cell disruption bomb (Parr Instrument, Moline, Ill.) and applied with 1,500 psi of nitrogen for 30 minutes on ice. Large cellular debris was removed by centrifugation at 1,000×g. Cell membrane in the supernatant was sedimented at 100,000×g. The membrane was resuspended in the lysis buffer supplemented with 10% sucrose and stored at −80° C. Total protein concentration of the membrane was determined by BCA method from Pierce (Rockford, Ill.).
Human CXCR3 (N-delta 4) Scintillation Proximity Assay (SPA)
For each assay point, 2 μg of membrane was preincubated for 1 hr with 300 μg wheat germ agglutinin (WGA) coated SPA beads (Amersham, Arlington Heights, Ill.) in the binding buffer (50 mM HEPES, 1 mM CaCl2, 5 mM MgCl2, 125 mM NaCl, 0.002% NaN3, 1.0% BSA) at room temperature. The beads were spun down, washed once, resuspended in the binding buffer and transferred to a 96-well Isoplate (Wallac, Gaithersburg, Md.). 25 pM of [^125I] IP-10 with tested compounds in a series of titration were added to start the reaction. After 3 hr reaction at room temperature, the amount of [^125I] IP-10 bound to the SPA beads was determined with a Wallac 1450 Microbeta counter.
The Ki values for the various example compounds of the present invention are given in the afore-mentioned Table 1. From these values, it would be apparent to the skilled artisan that the compounds of the invention have excellent utility CXCR3 antagonists.
(Scintillation proximity formats need no separation of bound from free tracer.)

Turning to `CC[C@H]1CN(c2nc(N)c(C(=O)NC)nc2Cl)CCN1C1CCN(C(=O)c2cc(F)c(Cl)nc2Cl)CC1` [compound 45], the IC50 is under 25 nM.
Turning to `CC[C@H]1CN(c2ncc(C(=O)NC(C)C)nc2C)CCN1C1CCN(C(=O)c2ccc(Cl)nc2N)CC1` [compound 123], the IC50 is under 25 nM.
Then `CC[C@H]1CN(c2ncc(C(=O)NCCO)nc2C)CCN1C1CCN(C(=O)c2ccc(Cl)nc2N)CC1` [compound 124], with under 25 nM; and `CC[C@H]1CN(c2nc(N)c(C(=O)NN)nc2Cl)CCN1C1CCN(C(=O)c2ccc(Cl)nc2N)CC1` [compound 65], with 25 to 100 nM; and `CC[C@H]1CN(c2nc(N)c(C(=O)NCCS(C)(=O)=O)nc2Cl)CCN1C1CCN(C(=O)c2ccc(Cl)nc2N)CC1` [compound 67], with 25 to 100 nM.
For the compound `CC[C@H]1CN(c2nc(N)c(C(=O)NCCO)nc2Cl)CCN1C1CCN(C(=O)c2ccc(C)nc2Cl)CC1` [compound 138], the IC50 is over 100 nM.
`CC[C@H]1CN(c2nc(N)c(C(=O)NC3CC3)nc2Cl)CCN1C1CCN(Cc2cc(-c3ccccc3)oc2C)CC1` [compound 141] yielded an IC50 of under 25 nM.
Regarding `CC[C@H]1CN(c2ncc(C(=O)NCCO)nc2Cl)CCN1C1CCN(C(=O)c2ccc(Cl)nc2N)CC1` [compound 125], the IC50 was under 25 nM.
As to `CC[C@H]1CN(c2nc(N)c(C(N)=O)nc2Cl)CCN1C1CCN(C(=O)c2ccc(Cl)n3ccnc23)CC1` [compound 114], the IC50 is over 100 nM.
Consider `CC[C@H]1CN(c2nc(N)c(C(=O)NC(=N)N)nc2Cl)CCN1C1CCN(C(=O)c2ccc(Cl)nc2N)CC1` [compound 3], for which the IC50 was under 25 nM.
The compound `CC[C@H]1CN(c2nc(N)c(C(=O)NC)nc2Cl)CCN1C1CCN(C(=O)c2ccc(Cl)nc2)CC1` [compound 44] displayed an IC50 of under 25 nM.
As for `CC[C@H]1CN(c2nc(NC(=O)N(C)C)c(C(=O)NC3CC3)nc2Cl)CCN1C1CCN(C(=O)c2ccc(Cl)nc2N)CC1` [compound 38], the IC50 is under 25 nM.
Then `CCOC(=O)NCc1nc(Cl)c(N2CCN(C3CCN(C(=O)c4ccc(Cl)nc4N)CC3)[C@@H](CC)C2)nc1N` [compound 80], with over 100 nM; and `CC[C@H]1CN(c2nc(N)c(C(=O)NCCO)nc2Cl)CCN1C1CCN(Cc2ccc(NC3CC3)nc2Cl)CC1` [compound 97], with over 100 nM; and `CC[C@H]1CN(c2nc(NC(=O)N(C)C)c(C(=O)NC)nc2Cl)CCN1C1CCN(C(=O)c2ccc(Cl)nc2N)CC1` [compound 77], with over 100 nM.
Consider `CC[C@H]1CN(c2nc(N)c(C(=O)Nc3ncccc3O)nc2Cl)CCN1C1CCN(C(=O)c2ccc(Cl)nc2N)CC1` [compound 89], for which the IC50 was over 100 nM.
`CC[C@H]1CN(c2nc(N)c(C(=O)NC3CC3)nc2Cl)CCN1C1CCN(C(=O)c2ccc(Cl)nc2N)CC1` [compound 4] registered an IC50 of under 25 nM.
On to `CC[C@H]1CN(c2nc(N)c(C(N)=O)nc2Cl)CCN1C1CCN(C(=O)c2ccc(Cl)nc2N)CC1` [compound 35], for which the IC50 is under 25 nM.
Turning to `CC[C@H]1CN(c2nc(N)c(C(N)=O)nc2Cl)[C@H](C)CN1C1CCN(C(=O)c2ccc(Cl)nc2N)CC1` [compound 167], the half-inhibitory concentration (IC50) is under 25 nM.
`CC[C@H]1CN(c2ncc(C(=O)O)nc2Cl)CCN1C1CCN(C(=O)c2ccc(Cl)nc2N)CC1` [compound 99] had an IC50 of over 100 nM.
The same measure for `CC[C@H]1CN(c2nc(N)c(C(=O)NCCO)nc2Cl)CCN1C1CCN(Cc2ccc(Cl)nc2N2CCOCC2)CC1` [compound 66]: 25 to 100 nM.
`CC[C@H]1CN(c2nc(N)c(C(=O)NCCO)nc2Cl)CCN1C1CCN(C(=O)c2nccnc2N)CC1` [compound 117] displayed an IC50 of over 100 nM.
`CC[C@H]1CN(c2nc(N)c(C(=O)NCCO)nc2Cl)CCN1C1CCN(C(=O)c2ccc(C(N)=O)nc2N)CC1` [compound 106] came in with an IC50 of over 100 nM.
Regarding `CC[C@H]1CN(c2nc(N)c(C(=O)NCCO)nc2Cl)CCN1C1CCN(Cc2ccc(Cl)nc2Cl)CC1` [compound 29], the IC50 was under 25 nM.
For `CC[C@H]1CN(c2nc(N)c(C(=O)N3CC(O)C3)nc2Cl)CCN1C1CCN(C(=O)c2ccc(Cl)nc2N)CC1` [compound 87], the IC50 is over 100 nM.
Turning to `CC[C@H]1CN(c2nc(N)c(C(=O)NN)nc2Cl)CCN1C1CCN(S(=O)(=O)c2c(C)noc2C)CC1` [compound 111], the IC50 was over 100 nM.
Regarding `CC[C@H]1CN(c2ncc(C(=O)NC3CC3)nc2C)CCN1C1CCN(C(=O)c2ccc(Cl)nc2N)CC1` [Compound No. 155], the IC50 was under 25 nM.
The compound `CC[C@H]1CN(c2nc(N)c(C(=O)N[C@H]3CC[C@H]3O)nc2Cl)CCN1C1CCN(C(=O)c2ccc(Cl)nc2N)CC1` [Compound No. 15] gave an IC50 of under 25 nM.
Compound `CCNC(=N)NC(=O)c1nc(Cl)c(N2CCN(C3CCN(C(=O)c4ccc(Cl)nc4N)CC3)[C@@H](CC)C2)nc1N` [Compound No. 5] returned a concentration for half-maximal inhibition (IC50) of under 25 nM.
Take `CC[C@H]1CN(c2nc(N)c(C(=O)NC3CC3)nc2C)CCN1C1CCN(C(=O)c2ccc(Cl)nc2N)CC1` [Compound No. 157]: the IC50 is under 25 nM.
On to `CC[C@H]1CN(c2nc(NCCOC)c(C(=O)NC3CC3)nc2Cl)CCN1C1CCN(C(=O)c2ccc(Cl)nc2N)CC1` [compound 17], for which the IC50 is under 25 nM.
Consider `CC[C@H]1CN(c2nc(N)c(C(=O)NC(=N)NC(C)=O)nc2Cl)CCN1C1CCN(C(=O)c2ccc(Cl)nc2N)CC1` [compound 14], for which the IC50 was under 25 nM.
Then `CC[C@H]1CN(c2nc(N)c(C(=O)NCCS(C)(=O)=O)nc2Cl)CCN1C1CCN(Cc2ccc(Cl)nc2N)CC1` [compound 53], with 25 to 100 nM.
On to `CC[C@H]1CN(c2nc(N)c(C(=O)NCCO)nc2Cl)CCN1C1CCN(Cc2ccc(OC)nc2)CC1` [compound 39], for which the IC50 was under 25 nM.
In the case of `CC[C@H]1CN(c2nc(N)c(C(=O)OC)nc2Cl)[C@H](C)CN1C1CCN(C(=O)c2ccc(Cl)nc2N)CC1` [compound 172], the IC50 is under 25 nM.
The compound `CCNC(=O)c1nc(C)c(N2CCN(C3CCN(C(=O)c4ccc(Cl)nc4N)CC3)[C@@H](CC)C2)nc1N` [Compound No. 156] returned an IC50 of under 25 nM.
Take `CC[C@H]1CN(c2nc(N)c(C(N)=O)nc2C)CCN1C1CCN(C(=O)c2ccc(Cl)nc2N)CC1` [compound 162]: the IC50 was under 25 nM.
`CC[C@H]1CN(c2ncc(C(=O)NC)nc2C)[C@H](C)CN1C1CCN(C(=O)c2ccc(Cl)nc2N)CC1` [compound 163] registered an IC50 of under 25 nM.
`CC[C@H]1CN(c2nc(N)c(C(N)=O)nc2Cl)CCN1C1CCN(C2OC(C(=O)N(C)C)c3cc(Cl)ccc32)CC1` (stereo partly drawn) [compound 151] registered an IC50 of 25 to 100 nM.
Regarding `CC[C@H]1CN(c2nc(N)c(C(=O)NCCO)nc2Cl)CCN1C1CCN(Cc2ccc(C#N)nc2)CC1` [compound 72], the IC50 is over 100 nM.
In the case of `CC[C@H]1CN(c2nc(N)c(C(=O)NC)nc2Cl)CCN1C1CCN(Cc2coc3cc(C)c(Cl)cc3c2=O)CC1` [compound 144], the IC50 is under 25 nM.
With `CC[C@H]1CN(c2nc(N)c(C(=O)NCC(F)(F)F)nc2Cl)CCN1C1CCN(C(=O)c2ccc(Cl)nc2N)CC1` [compound 12], the IC50 was under 25 nM.
Compound `CC[C@H]1CN(c2nc(N)c(C(=O)NCCO)nc2Cl)CCN1C1CCN(Cc2ccc3nccn3c2)CC1` [compound 104] showed an IC50 of over 100 nM.
Turning to `CC[C@H]1CN(c2nc(N)c(C(=O)NCCO)nc2Cl)CCN1C1CCN(Cc2ccc(C(F)(F)F)nc2)CC1` [compound 70], the IC50 lay within 25 to 100 nM.
In turn, `CC[C@H]1CN(c2nc(N)c(C(=O)Nc3ccncc3)nc2Cl)CCN1C1CCN(C(=O)c2ccc(Cl)nc2N)CC1` [compound 130] came in with an IC50 of under 25 nM.
